Measurements published in patent US20030152647A1, “Safe botanical drug for treating malignant pleural effusion and cancer and increasing immune function” (priority 2002, published 2003).

Tested on: peritoneal macrophage
Assay: Phagocytosis of peritoneal macrophage in mice
Type: in vivo
Conditions: drugs subcutaneously daily for 7 days
Protocol: Added 0.02 ml of 5% washed chick red blood cell suspension to 0.5 ml of the peritoneal exudate, shaken gently to mix and incubated at 37° C. for 5 minutes. Dipped two coverslips, closed to each other, in the above mixture and incubate for 30 minutes for the migration of the macrophages along the coverslips then fixed and stained with Sharma stain. Examined microscopically for: Phagocytic rate—number of macrophages with phagocytized chick red blood cells per 100 macrophages counted.
Method of animal model was regular. The drugs were injected subcutaneously daily for 7 days.

O=P1(N(CCCl)CCCl)NCCCO1 (stereo not shown) [CY, Cyclophosphamide]
Phagocytic rate (x + SD, %): 7.52 ± 0.46%
